Laboratory results published in ChEMBL document CHEMBL3779796, “One-pot synthesis and antimicrobial evaluation of novel 3-cyanopyridine derivatives of (-)-β-pinene” (2016).
≈ marks a conversion by molar mass, not a printed value.

Key:
Assay type in all cases: functional
[1] = system: Staphylococcus aureus; assay: Antimicrobial activity against Staphylococcus aureus after 24 hrs by serial two-fold microbroth dilution method
[2] = system: Klebsiella pneumoniae; assay: Antimicrobial activity against Klebsiella pneumoniae after 24 hrs by serial two-fold microbroth dilution method
[3] = system: Klebsiella aerogenes; assay: Antimicrobial activity against Enterobacter aerogenes after 24 hrs by serial two-fold microbroth dilution method
[4] = system: Candida albicans; assay: Antimicrobial activity against Candida albicans after 48 hrs by serial two-fold microbroth dilution method
[5] = system: Staphylococcus epidermidis; assay: Antimicrobial activity against Staphylococcus epidermidis after 24 hrs by serial two-fold microbroth dilution method

Row | Compound | MIC [1] | MIC [2] | MIC [3] | MIC [4] | MIC [5]
1 | CC1(C)[C@H]2Cc3c(nc(O)c(C#N)c3-c3ccc(C(F)(F)F)cc3)[C@@H]1C2 | 125 µg/mL (≈ 349 µM) | > 125 µg/mL | 125 µg/mL (≈ 349 µM) | 125 µg/mL (≈ 349 µM) | 125 µg/mL (≈ 349 µM)
2 | CC1(C)[C@H]2Cc3c(nc(O)c(C#N)c3-c3cccc(Br)c3)[C@@H]1C2 | 62.5 µg/mL (≈ 169 µM) | 62.5 µg/mL (≈ 169 µM) | 62.5 µg/mL (≈ 169 µM) | 31.3 µg/mL (≈ 84.8 µM) | 31.3 µg/mL (≈ 84.8 µM)
3 | NC[C@H]1O[C@H](O[C@H]2[C@H](O)[C@@H](O[C@H]3O[C@H](CO)[C@@H](O)[C@H](N)[C@H]3O)[C@H](N)C[C@@H]2N)[C@H](O)[C@@H](O)[C@@H]1O [KANAMYCIN] | 2 µg/mL (≈ 4.13 µM) | 2 µg/mL (≈ 4.13 µM) | 3.9 µg/mL (≈ 8.05 µM) |  | 3.9 µg/mL (≈ 8.05 µM)
4 | CC1(C)[C@H]2Cc3c(nc(O)c(C#N)c3-c3ccccc3Cl)[C@@H]1C2 | 125 µg/mL (≈ 385 µM) | 125 µg/mL (≈ 385 µM) | 62.5 µg/mL (≈ 192 µM) | 125 µg/mL (≈ 385 µM) | 125 µg/mL (≈ 385 µM)
5 | CC1(C)[C@H]2Cc3c(nc(O)c(C#N)c3-c3cccc(O)c3)[C@@H]1C2 | 62.5 µg/mL (≈ 204 µM) | 62.5 µg/mL (≈ 204 µM) | 62.5 µg/mL (≈ 204 µM) | 62.5 µg/mL (≈ 204 µM) | 31.3 µg/mL (≈ 102 µM)
6 | CC1(C)[C@H]2Cc3c(nc(O)c(C#N)c3-c3ccc(Br)cc3)[C@@H]1C2 | 62.5 µg/mL (≈ 169 µM) | 62.5 µg/mL (≈ 169 µM) | 125 µg/mL (≈ 339 µM) | 31.3 µg/mL (≈ 84.8 µM) | 62.5 µg/mL (≈ 169 µM)
7 | CC1(C)[C@H]2Cc3c(nc(N)c(C#N)c3-c3ccc(F)cc3)[C@@H]1C2 | > 125 µg/mL | 125 µg/mL (≈ 407 µM) | 125 µg/mL (≈ 407 µM) | 62.5 µg/mL (≈ 203 µM) | 125 µg/mL (≈ 407 µM)
8 | COc1ccccc1-c1c(C#N)c(N)nc2c1C[C@H]1C[C@@H]2C1(C)C | > 125 µg/mL | > 125 µg/mL | > 125 µg/mL | 125 µg/mL (≈ 391 µM) | 125 µg/mL (≈ 391 µM)
9 | CC1(C)[C@H]2Cc3c(nc(N)c(C#N)c3-c3ccccc3Cl)[C@@H]1C2 | 125 µg/mL (≈ 386 µM) | 125 µg/mL (≈ 386 µM) | 125 µg/mL (≈ 386 µM) | 125 µg/mL (≈ 386 µM) | 125 µg/mL (≈ 386 µM)
10 | COc1cccc(-c2c(C#N)c(O)nc3c2C[C@H]2C[C@@H]3C2(C)C)c1 | 62.5 µg/mL (≈ 195 µM) | 125 µg/mL (≈ 390 µM) | 125 µg/mL (≈ 390 µM) | 125 µg/mL (≈ 390 µM) | 62.5 µg/mL (≈ 195 µM)
11 | CC1(C)[C@H]2Cc3c(nc(O)c(C#N)c3-c3ccc(Cl)cc3Cl)[C@@H]1C2 | 62.5 µg/mL (≈ 174 µM) | 125 µg/mL (≈ 348 µM) | 62.5 µg/mL (≈ 174 µM) | 62.5 µg/mL (≈ 174 µM) | 31.3 µg/mL (≈ 87.1 µM)
12 | CC1(C)[C@H]2Cc3c(nc(N)c(C#N)c3-c3ccccc3)[C@@H]1C2 | > 125 µg/mL | > 125 µg/mL | > 125 µg/mL | 125 µg/mL (≈ 432 µM) | 125 µg/mL (≈ 432 µM)
13 | COc1ccccc1-c1c(C#N)c(O)nc2c1C[C@H]1C[C@@H]2C1(C)C | 125 µg/mL (≈ 390 µM) | 125 µg/mL (≈ 390 µM) | 125 µg/mL (≈ 390 µM) | 62.5 µg/mL (≈ 195 µM) | 125 µg/mL (≈ 390 µM)
14 | CC1(C)[C@H]2Cc3c(nc(N)c(C#N)c3-c3ccc(Cl)cc3)[C@@H]1C2 | 125 µg/mL (≈ 386 µM) | 125 µg/mL (≈ 386 µM) | 125 µg/mL (≈ 386 µM) | 62.5 µg/mL (≈ 193 µM) | 125 µg/mL (≈ 386 µM)
15 | CC1(C)[C@H]2Cc3c(nc(O)c(C#N)c3-c3ccccc3)[C@@H]1C2 | 125 µg/mL (≈ 430 µM) | > 125 µg/mL | > 125 µg/mL | 125 µg/mL (≈ 430 µM) | 125 µg/mL (≈ 430 µM)
16 | CC1(C)[C@H]2Cc3c(nc(N)c(C#N)c3-c3ccc(Br)cc3)[C@@H]1C2 | 125 µg/mL (≈ 339 µM) | 125 µg/mL (≈ 339 µM) | 125 µg/mL (≈ 339 µM) | 62.5 µg/mL (≈ 170 µM) | 125 µg/mL (≈ 339 µM)
17 | CC1(C)[C@H]2Cc3c(nc(O)c(C#N)c3-c3ccc(F)c(F)c3)[C@@H]1C2 | 31.3 µg/mL (≈ 95.9 µM) | 62.5 µg/mL (≈ 192 µM) | 62.5 µg/mL (≈ 192 µM) | 15.6 µg/mL (≈ 47.8 µM) | 15.6 µg/mL (≈ 47.8 µM)
18 | CC1(C)[C@H]2CCC(=O)[C@@H]1C2 | > 125 µg/mL | > 125 µg/mL | > 125 µg/mL | > 125 µg/mL | > 125 µg/mL
19 | CC1(C)[C@H]2Cc3c(nc(O)c(C#N)c3-c3ccc(F)cc3)[C@@H]1C2 | 31.3 µg/mL (≈ 102 µM) | 62.5 µg/mL (≈ 203 µM) | 62.5 µg/mL (≈ 203 µM) | 31.3 µg/mL (≈ 102 µM) | 15.6 µg/mL (≈ 50.6 µM)
20 | COc1ccc(-c2c(C#N)c(N)nc3c2C[C@H]2C[C@@H]3C2(C)C)cc1OC | > 125 µg/mL | > 125 µg/mL | > 125 µg/mL | 62.5 µg/mL (≈ 179 µM) | 125 µg/mL (≈ 358 µM)
21 | CO[C@H]1/C=C/O[C@@]2(C)Oc3c(C)c(O)c4c(O)c(c(/C=N/N5CCN(C)CC5)c(O)c4c3C2=O)NC(=O)/C(C)=C\C=C\[C@H](C)[C@H](O)[C@@H](C)[C@@H](O)[C@@H](C)[C@H](OC(C)=O)[C@@H]1C [RIFAMPIN] |  |  |  | 3.9 µg/mL (≈ 4.74 µM) | 
22 | CC1(C)[C@H]2Cc3c(nc(O)c(C#N)c3-c3ccc(Cl)cc3)[C@@H]1C2 | 31.3 µg/mL (≈ 96.4 µM) | 62.5 µg/mL (≈ 192 µM) | 62.5 µg/mL (≈ 192 µM) | 31.3 µg/mL (≈ 96.4 µM) | 31.3 µg/mL (≈ 96.4 µM)
23 | CC1(C)[C@H]2Cc3c(nc(N)c(C#N)c3-c3cccc(O)c3)[C@@H]1C2 | > 125 µg/mL | 125 µg/mL (≈ 409 µM) | 125 µg/mL (≈ 409 µM) | 125 µg/mL (≈ 409 µM) | 125 µg/mL (≈ 409 µM)
24 | CC1(C)[C@H]2Cc3c(nc(N)c(C#N)c3-c3ccc(F)c(F)c3)[C@@H]1C2 | > 125 µg/mL | 125 µg/mL (≈ 384 µM) | 125 µg/mL (≈ 384 µM) | 31.3 µg/mL (≈ 96.2 µM) | 125 µg/mL (≈ 384 µM)
25 | CC1(C)[C@H]2Cc3c(nc(N)c(C#N)c3-c3cccc(Br)c3)[C@@H]1C2 | > 125 µg/mL | 125 µg/mL (≈ 339 µM) | 125 µg/mL (≈ 339 µM) | 125 µg/mL (≈ 339 µM) | 125 µg/mL (≈ 339 µM)
26 | COc1cccc(-c2c(C#N)c(N)nc3c2C[C@H]2C[C@@H]3C2(C)C)c1 | 125 µg/mL (≈ 391 µM) | 125 µg/mL (≈ 391 µM) | 125 µg/mL (≈ 391 µM) | 125 µg/mL (≈ 391 µM) | 125 µg/mL (≈ 391 µM)
27 | Cc1ccc(-c2c(C#N)c(O)nc3c2C[C@H]2C[C@@H]3C2(C)C)cc1 | 125 µg/mL (≈ 411 µM) | > 125 µg/mL | > 125 µg/mL | 125 µg/mL (≈ 411 µM) | 125 µg/mL (≈ 411 µM)
28 | Cc1ccc(-c2c(C#N)c(N)nc3c2C[C@H]2C[C@@H]3C2(C)C)cc1 | > 125 µg/mL | > 125 µg/mL | > 125 µg/mL | 125 µg/mL (≈ 412 µM) | > 125 µg/mL
